# Earlier results, collected in Sander's compilation of Henry's law constants.
# Experiments:
# [1] = Henry solubility constant Hcp at 298.15 K (mol/(m3 Pa)); settings: cited value
# [2] = Henry solubility constant Hcp at 293 K (mol/(m3 Pa)); settings: cited value
# [3] = reference: Burkholder et al. (2015)
# [4] = reference: Burkholder et al. (2019)
# [5] = reference: Sander et al. (2006)
# [6] = reference: Sander et al. (2011)
# [7] = reference: Fogg and Sangster (2003)
# [8] = reference: Nicholson et al. (1984)
# [9] = reference: Barcelo and Hennion (1997)
# [10] = reference: Wania and Dugani (2003)
smiles,measurement,setting,value
O=C=O [carbon dioxide],Henry solubility constant Hcp,[1]; [3],0.00034
same,Henry solubility constant Hcp,[1]; [4],0.00034
same,Henry solubility constant Hcp,[1]; reference: Carroll et al. (1991),0.00034
same,Henry solubility constant Hcp,[1]; reference: Chen et al. (1979),0.00034
same,Henry solubility constant Hcp,[1]; reference: Crovetto (1991),0.00034
same,Henry solubility constant Hcp,[1]; reference: Edwards et al. (1978),0.00034
same,Henry solubility constant Hcp,[1]; reference: Lelieveld and Crutzen (1991),0.00034
same,Henry solubility constant Hcp,[1]; reference: Pandis and Seinfeld (1989),0.00034
same,Henry solubility constant Hcp,[1]; reference: Perry and Chilton (1973),0.00034
same,Henry solubility constant Hcp,[1]; [5],0.00033
same,Henry solubility constant Hcp,[1]; [6],0.00033
same,Henry solubility constant Hcp,[1]; reference: Weiss (1974),0.00034
same,Henry solubility constant Hcp,[1]; reference: Yoo et al. (1986),0.00034
same,Henry solubility constant Hcp at 293 K,[2]; reference: Nunn (1958),0.00039
Cc1cc(C)nc(Nc2ccccc2)n1 [pyrimethanil],Henry solubility constant Hcp at 293 K,[2]; reference: Tomlin (1998),280
ClC(Cl)Br [bromodichloromethane],Henry solubility constant Hcp,[1]; [3],0.004
same,Henry solubility constant Hcp,[1]; [4],0.004
same,Henry solubility constant Hcp,[1]; [7],0.0048
same,Henry solubility constant Hcp,[1]; reference: Goldstein (1982),0.0046
same,Henry solubility constant Hcp,[1]; [8],0.0043
same,Henry solubility constant Hcp,[1]; [5],0.004
same,Henry solubility constant Hcp,[1]; [6],0.004
same,Henry solubility constant Hcp at 293 K,[2]; [8],0.0047
[Hg] [mercury],Henry solubility constant Hcp,[1]; [3],0.0013
same,Henry solubility constant Hcp,[1]; [4],0.0013
same,Henry solubility constant Hcp,[1]; reference: Clever (1987),0.0012
same,Henry solubility constant Hcp,[1]; reference: Clever et al. (1985),0.0011
same,Henry solubility constant Hcp,[1]; reference: Shon et al. (2005),0.0012
same,Henry solubility constant Hcp at 293 K,[2]; reference: WHO (1990),0.0014
CSC [dimethyl sulfide],Henry solubility constant Hcp,[1]; reference: Brockbank (2013),0.0054
same,Henry solubility constant Hcp,[1]; [3],0.0053
same,Henry solubility constant Hcp,[1]; [4],0.0053
same,Henry solubility constant Hcp,[1]; [7],0.0052
same,Henry solubility constant Hcp,[1]; reference: Gaffney and Senum (1984),0.0061
same,Henry solubility constant Hcp,[1]; [5],0.0053
same,Henry solubility constant Hcp,[1]; [6],0.0053
same,Henry solubility constant Hcp at 293 K,[2]; reference: Vitenberg et al. (1975),0.007
CC(Cc1ccc(C(C)(C)C)cc1)CN1CCCCC1 (centres undefined) [fenpropidin],Henry solubility constant Hcp at 293 K,[2]; reference: Tomlin (1998),0.099
BrCBr [dibromomethane],Henry solubility constant Hcp,[1]; reference: Brockbank (2013),0.012
same,Henry solubility constant Hcp,[1]; [4],0.012
CC(C)N(C(=O)SCC(Cl)=C(Cl)Cl)C(C)C [triallate],Henry solubility constant Hcp,[1]; [9],0.01
C1=CCCCCC1 [cycloheptene],Henry solubility constant Hcp,[1]; reference: Brockbank (2013),0.0002
CCOO [ethyl hydroperoxide],Henry solubility constant Hcp,[1]; reference: Brockbank (2013),3.3
same,Henry solubility constant Hcp,[1]; [3],3.3
same,Henry solubility constant Hcp,[1]; [4],3.3
same,Henry solubility constant Hcp,[1]; [6],3.3
CCC(C)OC(C)=O (centres undefined) [2-butyl ethanoate],Henry solubility constant Hcp,[1]; reference: Brockbank (2013),0.023
CC(=O)O[O] [peroxyacetyl radical],Henry solubility constant Hcp,[1]; [3],< 0.00099
same,Henry solubility constant Hcp,[1]; [4],< 0.00099
same,Henry solubility constant Hcp,[1]; [5],< 0.00099
same,Henry solubility constant Hcp,[1]; [6],< 0.00099
"OCC(O)CO [1,2,3-propanetriol]",Henry solubility constant Hcp,[1]; [3],4.7e+06
same,Henry solubility constant Hcp,[1]; [4],4.7e+06
C/C=C\CCCC [cis-2-heptene],Henry solubility constant Hcp,[1]; reference: Brockbank (2013),2.4e-05
C1CCCCCC1 [cycloheptane],Henry solubility constant Hcp,[1]; reference: Brockbank (2013),6.7e-05
"Brc1ccc(Oc2c(Br)cc(Br)cc2Br)c(Br)c1 [2,2',4,4',6-pentabromodiphenyl ether]",Henry solubility constant Hcp,[1]; [10],2.6
CC(C)I [2-iodopropane],Henry solubility constant Hcp,[1]; reference: Brockbank (2013),0.00085
CCCOC(C)=O [propyl ethanoate],Henry solubility constant Hcp,[1]; reference: Brockbank (2013),0.044
[He] [helium],Henry solubility constant Hcp,[1]; reference: Clever (1979a),3.8e-06
same,Henry solubility constant Hcp,[1]; reference: Himmelblau (1960),3.7e-06
COP(=S)(OC)Oc1ccc([N+](=O)[O-])c(C)c1 [fenitrothion],Henry solubility constant Hcp,[1]; [9],2.7
"CC(O)C(C)O (centres undefined) [2,3-butanediol]",Henry solubility constant Hcp,[1]; [3],1100
same,Henry solubility constant Hcp,[1]; [4],1100
Cc1ccccc1N [2-methylbenzenamine],Henry solubility constant Hcp,[1]; reference: Brockbank (2013),4.8
CCCCCCc1ccccc1 [hexylbenzene],Henry solubility constant Hcp,[1]; reference: Brockbank (2013),0.0004
C1CCCCC1 [cyclohexane],Henry solubility constant Hcp,[1]; reference: Brockbank (2013),5.1e-05
same,Henry solubility constant Hcp,[1]; reference: Goldstein (1982),6.2e-05
O=C(O)C(Br)(Br)Br [tribromoethanoic acid],Henry solubility constant Hcp,[1]; [3],3000
same,Henry solubility constant Hcp,[1]; [4],3000
same,Henry solubility constant Hcp,[1]; [6],3000
"CC1=CC(=O)CC(C)(C)C1 [3,5,5-trimethyl-2-cyclohexen-1-one]",Henry solubility constant Hcp,[1]; reference: Goldstein (1982),1.7
"Brc1cc(Br)c(Oc2cc(Br)c(Br)cc2Br)cc1Br [2,2',4,4',5,5'-hexabromodiphenyl ether]",Henry solubility constant Hcp,[1]; [10],2.9
Cc1cccc(N)c1 [3-methylbenzenamine],Henry solubility constant Hcp,[1]; reference: Brockbank (2013),5.6
Clc1ccc2ccccc2c1 [2-chloronaphthalene],Henry solubility constant Hcp,[1]; reference: Goldstein (1982),0.016
